In the OligoGym collection one finds target mRNA inhibition data, which are given here for 85 sequences.

After the bases stand the sugars from the 5' end (letter, count) and the backbone: PS all phosphorothioate, else s phosphorothioate and o phosphodiester by linkage. Methylation of C is not given here. e = 2'-O-(2-methoxyethyl) (MOE); k = constrained ethyl (cEt); d = 2'-deoxy (DNA); m = 2'-O-methyl

The data set has as its target HSD17B13. The conditions noted are these: ASO, HepaRG.

Turning to “ACAAUATGGGATGAGG (sugars k3 d1 m1 d8 k3, PS)”, the target mRNA inhibition was 0% (0.02 µM); 2% (0.078 µM); 0% (0.313 µM); 70% (1 µM); 48% (1.25 µM); 59% (5 µM).

Consider ATGTATGAGGTCTCCG (sugars k3 d10 k3, PS), for which, for the setting “1 µM”, the target mRNA inhibition is 63%.

Turning to ATTGTATGAGGTCTCT (sugars k3 d10 k3, PS), under “1 µM”, the target mRNA inhibition was found to be 49%.

Where the note is “1 µM”, CATATCATTATCATGC (sugars k3 d10 k3, PS) registered a target mRNA inhibition of 66%.

On to “AAGTTAGCCCCCAGGA (sugars kkdddddddddkekek, PS)”, for which the target mRNA inhibition (1 µM) was 12%.

“TGACAATGGTTGATAG (sugars k3 d9 k3 e1, PS)” had a target mRNA inhibition (1 µM) of 38%.

Under “1 µM”, CCTTAACAAACCTCCA (sugars k3 d10 k3, PS) gave a target mRNA inhibition of 27%.

In the case of TCCACTTTTGGTGGAC (sugars k3 d10 k3, PS), the target mRNA inhibition (1 µM) is 16%.

Regarding GAGACAAGAGTTCTTG (sugars k3 d10 k3, PS), where the note is “1 µM”, the target mRNA inhibition is 19%.

Sequence ATATATCCTTCCTTGG (sugars k3 d10 k3, PS) returned a target mRNA inhibition (1 µM) of 20%.

ATGCAAAAGCATTCTA (sugars k3 d10 k3, PS) registered a target mRNA inhibition (1 µM) of 50%.

Turning to “AGAGTCGGTCACCTTT (sugars kkdddddddddkekek, PS)”, the target mRNA inhibition (1 µM) amounted to 61%.

Consider “TTGCAGTTATTAGAAG (sugars k3 d9 k3 e1, PS)”, for which the target mRNA inhibition (1 µM) worked out at 10%.

The sequence TATTCTCCAACTCAGG (sugars k3 d10 k3, PS) showed a target mRNA inhibition (1 µM) of 54%.

Sequence GTTTCAAAAAGGCCCA (sugars k3 d10 k3, PS) came in with a target mRNA inhibition (1 µM) of 39%.

Take “CTAGGGAAATCTTTCA (sugars k3 d9 k3 e1, PS)”: the target mRNA inhibition (1 µM) was 55%.

“CACCGTTTTGGGCTAA (sugars kkdddddddddkekek, PS)”: where the note is “1 µM”, the target mRNA inhibition is 42%.

For the setting “1 µM”, TATATACATCAACTCC (sugars k3 d10 k3, PS) registered a target mRNA inhibition of 61%.

ATAATAATAGCTCTAT (sugars k3 d10 k3, PS): the target mRNA inhibition (1 µM) came to 1%.

“TGAACAGTCTTAAACC (sugars kkdddddddddkekek, PS)” yielded a target mRNA inhibition (1 µM) of 34%.

For the sequence “CTACACTAATATTGAG (sugars k3 d9 k3 e1, PS)”, the target mRNA inhibition (1 µM) worked out at 10%.

Regarding TGACTAATGCAAGATT (sugars k3 d10 k3, PS), where the note is “1 µM”, the target mRNA inhibition stood at 45%.

Under “1 µM”, AGAGCGATAGATCTCT (sugars k3 d10 k3, PS) displayed a target mRNA inhibition of 8%.

Turning to GACAATGGTTGCCACT (sugars k3 d10 k3, PS), the target mRNA inhibition (1 µM) amounted to 63%.

TTGATTCGAAACTATT (sugars k3 d10 k3, PS) yielded a target mRNA inhibition (1 µM) of 55%.

GACTTTCATAGGGAGA (sugars k3 d10 k3, PS): the target mRNA inhibition (1 µM) came to 72%.

As for “TTCTTATGTAATAGCC (sugars k3 d9 k3 e1, PS)”, the target mRNA inhibition came out at 17% (0.02 µM); 25% (0.078 µM); 57% (0.313 µM); 73% (1 µM); 76% (1.25 µM); 85% (5 µM).

ATCAAGACATTCTAGC (sugars k3 d10 k3, PS) returned a target mRNA inhibition (1 µM) of 61%.

The sequence “ATCTATCAGACTTCTT (sugars kkdddddddddkekek, PS)” had a target mRNA inhibition (1 µM) of 37%.

GTAATTCTAAACTAGT (sugars k3 d10 k3, PS) came in with a target mRNA inhibition (1 µM) of 39%.

Turning to ATATTCCAGGATTTGC (sugars k3 d10 k3, PS), under “1 µM”, the target mRNA inhibition was 26%.

Take CTCCCACAAAACTAAC (sugars k3 d10 k3, PS): the target mRNA inhibition (1 µM) amounted to 13%.

The sequence TTGAATTCACTATCTC (sugars k3 d10 k3, PS) came in with a target mRNA inhibition (1 µM) of 45%.

For the sequence “GATGUAGTGGGAGTCG (sugars k3 d1 m1 d8 k3, PS)”, the target mRNA inhibition (1 µM) turned out to be 35%.

AAGATCGGCTGGATAT (sugars k3 d10 k3, PS) showed a target mRNA inhibition (1 µM) of 1%.

Under “1 µM”, “GTGTTCTTGTTGATAT (sugars kkdddddddddkekek, PS)” gave a target mRNA inhibition of 63%.

For “TATGTAATAGCCAGTA (sugars k3 d9 k3 e1, PS)”, the target mRNA inhibition (0.02 µM) came to 23%; the target mRNA inhibition (0.078 µM) was found to be 28%; the target mRNA inhibition (0.313 µM) was determined as 53%; the target mRNA inhibition (1 µM) amounted to 82%; the target mRNA inhibition (1.25 µM) turned out to be 78%; the target mRNA inhibition (5 µM) amounted to 93%.

Take AATAACTGTTCTCCCC (sugars k3 d10 k3, PS): the target mRNA inhibition (1 µM) is 20%.

For the setting “1 µM”, “ATATGTCCAGGTTGAG (sugars kkdddddddddkekek, PS)” gave a target mRNA inhibition of 28%.

The sequence CACCAATGCAGTTTGT (sugars k3 d10 k3, PS) yielded a target mRNA inhibition (1 µM) of 42%.

On to GTGAAAGCCAACAGCG (sugars k3 d10 k3, PS), for which the target mRNA inhibition (1 µM) stood at 62%.

With “CTTGAACAGTCTTAAA (sugars k3 d1 m1 d8 k3, PS)”, the target mRNA inhibition (1 µM) came out at 49%.

As for CACATACGCATGCGCA (sugars k3 d10 k3, PS), the target mRNA inhibition (1 µM) stood at 59%.

AAGGAGTATGACAACT (sugars k3 d10 k3, PS): the target mRNA inhibition (1 µM) was found to be 28%.

Sequence CTTATTAAGTACTGTG (sugars k3 d10 k3, PS) showed a target mRNA inhibition (1 µM) of 0%.

In turn, “CTATAGTAATCACAAG (sugars kkdddddddddkekek, PS)” had a target mRNA inhibition (1 µM) of 36%.

For the sequence ACCCTTAACAAACCTC (sugars k3 d10 k3, PS), the target mRNA inhibition (1 µM) was 36%.

Sequence “TTAATGCCACCCTACC (sugars kkdddddddddkekek, PS)” came in with a target mRNA inhibition (1 µM) of 11%.

In turn, TCTGTCTCCAATACAG (sugars k3 d10 k3, PS) displayed a target mRNA inhibition (1 µM) of 13%.

In the case of CAAGACTTAAACACCA (sugars k3 d10 k3, PS), the target mRNA inhibition (1 µM) was found to be 55%.

“TTCCATCTATCAGACT (sugars kkdddddddddkekek, PS)” registered a target mRNA inhibition (1 µM) of 33%.

The sequence TCATATCCAGTAGGTG (sugars k3 d10 k3, PS) returned a target mRNA inhibition (1 µM) of 32%.

On to “ACAGUAAAATTATGCC (sugars k3 d1 m1 d8 k3, PS)”, for which the target mRNA inhibition (1 µM) came to 24%.

In turn, CAGAATATATACTAGG (sugars k3 d10 k3, PS) had a target mRNA inhibition (1 µM) of 55%.

Under “1 µM”, “ACGGTGATCAAATGTA (sugars k3 d9 k3 e1, PS)” yielded a target mRNA inhibition of 41%.

In the case of “TGCTAGTGCCAAACCA (sugars kkdddddddddkekek, PS)”, the target mRNA inhibition (1 µM) is 58%.

As for TGCAAAATGTGATGCC (sugars k3 d10 k3, PS), the target mRNA inhibition (1 µM) stood at 69%.

ACCTAATAACTACATG (sugars k3 d10 k3, PS) registered a target mRNA inhibition (1 µM) of 0%.

In the case of GTTAAGCAGATGGCTT (sugars k3 d10 k3, PS), the target mRNA inhibition (1 µM) is 41%.

In the case of AACAATCTCCCCAGCC (sugars k3 d10 k3, PS), the target mRNA inhibition (1 µM) was 59%.

With TATACATCAACTCCTC (sugars k3 d10 k3, PS), where the note is “1 µM”, the target mRNA inhibition was 39%.

As for “GAATAGCAAGCCAACA (sugars k3 d1 m1 d8 k3, PS)”, the target mRNA inhibition (1 µM) was determined as 23%.

In turn, “ATGTGAAGAGCTGGTA (sugars kkkddkddddddkkke, PS)” displayed a target mRNA inhibition (1 µM) of 56%.

In turn, AGCTCCAGTAATGAGA (sugars k3 d10 k3, PS) had a target mRNA inhibition (1 µM) of 26%.

Take GGAGTAGATGATGGTG (sugars k3 d10 k3, PS): where the note is “1 µM”, the target mRNA inhibition came out at 31%.

On to GACAGAGCAATTTACT (sugars k3 d10 k3, PS), for which the target mRNA inhibition (1 µM) is 55%.

For the sequence TATAACATGGCTGGCA (sugars k3 d10 k3, PS), the target mRNA inhibition (1 µM) is 33%.

Turning to TCATAGTGGACTTCAT (sugars k3 d10 k3, PS), the target mRNA inhibition (1 µM) came to 36%.

In the case of TACTAATGTCCAAGGA (sugars k3 d10 k3, PS), the target mRNA inhibition (0.02 µM) was determined as 4%; the target mRNA inhibition (0.078 µM) came to 0%; the target mRNA inhibition (0.313 µM) stood at 38%; the target mRNA inhibition (1 µM) is 77%; the target mRNA inhibition (1.25 µM) worked out at 64%; the target mRNA inhibition (5 µM) came to 75%.

Regarding “CGTTTTGGGCTAATGA (sugars kkdddddddddkekek, PS)”, the target mRNA inhibition (1 µM) was determined as 37%.

CAATAATAATGGGCAG (sugars k3 d10 k3, PS) displayed a target mRNA inhibition (1 µM) of 43%.

Turning to “TGTAAGAGTCAGTATC (sugars k3 d9 k3 e1, PS)”, under “1 µM”, the target mRNA inhibition stood at 46%.

Under “1 µM”, GTCAGACCTCTGTGAA (sugars k3 d10 k3, PS) came in with a target mRNA inhibition of 34%.

ATACGACTTCCTTCTA (sugars k3 d10 k3, PS): the target mRNA inhibition (1 µM) came out at 44%.

In turn, TGCTACTTGAACAGTC (sugars k3 d10 k3, PS) came in with a target mRNA inhibition (0.02 µM) of 3%; a target mRNA inhibition (0.078 µM) of 22%; a target mRNA inhibition (0.313 µM) of 49%; a target mRNA inhibition (1 µM) of 81%; a target mRNA inhibition (1.25 µM) of 78%; a target mRNA inhibition (5 µM) of 89%.

The sequence “ATGTATCTTATAAGAC (sugars kkdddddddddkekek, PS)” registered a target mRNA inhibition (1 µM) of 18%.

With ATGTCTTGGTAATCTC (sugars k3 d10 k3, PS), the target mRNA inhibition (1 µM) was determined as 23%.

Where the note is “1 µM”, CTTAAACCTTCCCTGT (sugars k3 d10 k3, PS) yielded a target mRNA inhibition of 22%.

In turn, CCACAGAACCAATATG (sugars k3 d10 k3, PS) returned a target mRNA inhibition (1 µM) of 49%.

Regarding TAGAAACTGCTCCTCA (sugars k3 d10 k3, PS), under “1 µM”, the target mRNA inhibition was 32%.

Regarding GAGGAATGGCTAGGAT (sugars k3 d10 k3, PS), under “1 µM”, the target mRNA inhibition turned out to be 47%.

Regarding CCCAACCAAACTTCCA (sugars k3 d10 k3, PS), the target mRNA inhibition (1 µM) was found to be 62%.

Sequence AAATTACTCCGTTCTG (sugars k3 d10 k3, PS) returned a target mRNA inhibition (1 µM) of 28%.

With “TGTCCAGGTTGAGATA (sugars k3 d1 m1 d8 k3, PS)”, the target mRNA inhibition (1 µM) came out at 41%.

CAAAACAAGATTAGTC (sugars k3 d10 k3, PS) came in with a target mRNA inhibition (1 µM) of 18%.
